pIC50: −log10 of the molar value. Where two headings read alike, the source gives them in different places.
Key:
Human KLKB1 = Human KLKB1 (Homo sapiens (Human), UniProt P03952); test: KLKB1 kallikrein activity inhibition assay (chromogenic substrate S-2302); type: biochemical
Procedure: The KLKB1 kallikrein activity reported herein (e.g., Tables B, C, and D) was obtained as follows. Human KLKB1 protein was obtained from Enzyme Research Labs. […] KLKB1 was assayed in buffer containing 0.05 M Tris (pH 7.4), 0.01 M NaCl and 0.2% w/v PEG-8000. The final concentration of enzyme used was 3 nM KLKB1. […] All assays were performed in 96-well microtiter plates at room temperature (RT). […] Inhibitor IC50 values were determined by adding test compound as ten point, three-fold serial dilutions in buffer solution, as known in the art. The plate was read at 10 minutes after substrate addition. The IC50 was calculated by plotting the percent (%) inhibition against compound concentration and fitting the data to a constrained four parameter sigmoidal curve, as known in the art.

Human thrombin = Human thrombin (Homo sapiens (Human), UniProt P00734); test: Thrombin protease activity inhibition assay (chromogenic substrate S-2238); type: biochemical; details: 3 nM thrombin, 125 μM S-2238, 10 min pre-incubation, RT
Outline: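 Ten-point, three-fold serial dilutions of compound tested against 3 nM enzyme at RT in Tris buffer (0.05 M, pH 7.4) with 0.015 M NaCl and 0.01% PEG-8000.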

Chain of Human KLKB1 (P03952 391-638 limits assumed): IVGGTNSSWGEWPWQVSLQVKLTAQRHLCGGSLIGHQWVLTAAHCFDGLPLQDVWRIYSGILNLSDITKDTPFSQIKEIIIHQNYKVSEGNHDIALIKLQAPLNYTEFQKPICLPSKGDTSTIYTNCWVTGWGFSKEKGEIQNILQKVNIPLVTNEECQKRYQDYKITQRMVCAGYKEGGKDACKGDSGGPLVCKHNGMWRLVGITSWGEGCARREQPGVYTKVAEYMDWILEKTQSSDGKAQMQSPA
Chain of Human KLKB1 (P03952 20-390 partner limits assumed): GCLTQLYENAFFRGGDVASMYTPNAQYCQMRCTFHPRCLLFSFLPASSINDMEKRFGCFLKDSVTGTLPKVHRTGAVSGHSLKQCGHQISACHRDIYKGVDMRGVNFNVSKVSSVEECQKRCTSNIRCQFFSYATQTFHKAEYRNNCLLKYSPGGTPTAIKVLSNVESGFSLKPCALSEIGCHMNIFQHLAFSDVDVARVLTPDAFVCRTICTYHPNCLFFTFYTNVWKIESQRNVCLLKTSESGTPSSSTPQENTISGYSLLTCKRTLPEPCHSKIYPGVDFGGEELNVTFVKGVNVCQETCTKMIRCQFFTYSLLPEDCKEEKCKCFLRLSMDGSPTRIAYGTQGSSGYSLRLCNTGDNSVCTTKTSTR

Row | SMILES | pIC50 (Human KLKB1; Table C) | pIC50 (Human thrombin) | further results
1 | CCC(=O)n1nc(-c2cccnc2)nc1NCc1ccccc1 [Cmpd 349] | 4.00 to 5.00 | – | –
2 | CC(C)CC(=O)n1nc(-c2ccccn2)nc1NCc1ccc(F)cc1 [Cmpd 304] | 4.00 to 5.00 | – | –
3 | COc1ccc(CNc2nc(-c3ccccn3)nn2C(=O)C(C)(C)C)cc1 [Cmpd 319] | 4.00 to 5.00 | – | –
4 | O=C(c1cccs1)n1nc(-c2ccncc2)nc1NCc1ccccc1 [Cmpd 406] | < 4.00 | – | –
5 | O=C(c1cccnc1)n1nc(-c2cccnc2)nc1NCc1cccs1 [Cmpd 365] | 5.00 to 6.00 | – | –
6 | O=C(Oc1ccccc1)n1nc(-c2cccnc2)nc1NCc1ccc(F)cc1 [Cmpd 409] | < 4.00 | – | –
7 | COc1ccccc1C(=O)n1nc(-c2ncccc2F)cc1NCc1ccc(Cl)s1 [Cmpd 290] | – | – | pIC50 (Human KLKB1; Table B): < 4.00
8 | COc1ccccc1C(=O)n1nc(-c2ccccc2)nc1NCc1ccc(Cl)o1 [Cmpd 383] | < 4.00 | – | –
9 | CC(C)(C)C(=O)n1nc(-c2ccccn2)nc1NCc1ccccc1 [Cmpd 344] | 4.00 to 5.00 | – | –
10 | O=C(c1ccoc1)n1nc(-c2cccnc2)nc1NCc1ccc(F)cc1 [Cmpd 372] | 5.00 to 6.00 | – | –
11 | CCCC(=O)n1nc(-c2cccnc2)nc1NCc1ccc(OC)cc1 [Cmpd 330] | 4.00 to 5.00 | – | –
12 | CC(C)OC(=O)n1nc(-c2cccnc2)nc1NCc1ccc(F)cc1 [Cmpd 410] | < 4.00 | – | –
13 | COc1ccc(CNc2nc(-c3cccnc3)nn2C(=O)c2ccsc2)cc1 [Cmpd 382] | 5.00 to 6.00 | – | –
14 | CC(C)(C)C(=O)n1nc(-c2ccco2)nc1NCc1ccc(F)cc1 [Cmpd 300] | 4.00 to 5.00 | – | –
15 | O=C(CCc1ccccc1)n1nc(-c2ccccn2)nc1NCc1ccc(F)cc1 [Cmpd 305] | 4.00 to 5.00 | – | –
16 | CC(C)(C)C(=O)n1nc(-c2ccccn2)cc1NCc1ccco1 [Cmpd 280, 1-5-[(furan-2-ylmethyl)amino]-3-(pyridin-2-yl)-1H-pyrazol-1-yl-2,2-dimethylpropan-1-one] | – | – | pIC50 (Human KLKB1; Table B): < 4.00
17 | COc1ccccc1C(=O)n1nc(C2CCOCC2)cc1NCc1ccc(Cl)s1 [Cmpd 284] | – | – | pIC50 (Human KLKB1; Table B): < 4.00
18 | COC(=O)c1n[nH]c(NC(=O)c2ccc(C)cc2)n1 [Cmpd 408, methyl 5-[(4-methylbenzene)amido]-1H-1,2,4-triazole-3-carboxylate] | – | – | pIC50 (Human KLKB1): < 4.00
19 | O=C(c1cccs1)n1nc(-c2cccnc2)nc1NCc1ccc(F)cc1 [Cmpd 376] | 5.00 to 6.00 | – | –
20 | COc1ccc(CNc2nc(-c3ccccn3)nn2C(=O)c2cccs2)cc1 [Cmpd 379] | < 4.00 | – | –
21 | O=C(NCc1ccc2[nH]cc(Cl)c2c1)[C@H]1CC(=O)N(Cc2cccc(Cl)c2)C1 [Cmpd 418, (3S)-N-[(3-chloro-1H-indol-5-yl)methyl]-1-[(3-chlorophenyl)methyl]-5-oxopyrrolidine-3-carboxamide] | – | – | pIC50 (Human KLKB1; 3 nM KLKB1, 250 μM S-2302, 10 min pre-incubation, RT): < 4.00
22 | O=C(c1ccccc1Cl)n1nc(-c2ccccn2)nc1NCc1ccccc1 [Cmpd 395] | 6.00 to 7.00 | – | –
23 | CCCC(=O)n1nc(-c2cccnc2)nc1NCc1ccc(F)cc1 [Cmpd 314] | 4.00 to 5.00 | – | –

More lines, main results first:

Row | pIC50 (Human KLKB1; Table C) | pIC50 (Human thrombin) | SMILES | further results
24 | 5.00 to 6.00 | – | COc1ccccc1C(=O)n1nc(-c2ccc(N3CCOCC3)cc2)nc1NCc1ccc(Cl)s1 [Cmpd 389] | –
25 | 6.00 to 7.00 | – | COc1ccccc1C(=O)n1nc(C2CCOCC2)nc1NCc1ccc(Cl)s1 [Cmpd 385] | –
26 | – | 5.00 to 6.00 | O=c1c(-c2cc(NCc3ccc(Cl)s3)[nH]n2)cccn1Cc1ccoc1 [Cmpd 223, 3-(5-[(5-chlorothiophen-2-yl)methyl]amino-1H-pyrazol-3-yl)-1-(furan-3-ylmethyl)-1,2-dihydropyridin-2-one] | –
27 | – | > 7.00 | CC1(C(=O)n2nc(-c3cccn(Cc4ccsc4)c3=O)cc2NCc2ccc(Cl)s2)CCOCC1 [Cmpd 158, 3-(5-[(5-chlorothiophen-2-yl)methyl]amino-1-[(4-methyloxan-4-yl)carbonyl]-1H-pyrazol-3-yl)-1-(thiophen-3-ylmethyl)-1,2-dihydropyridin-2-one] | –
28 | – | > 7.00 | O=C(c1ccccc1Cl)n1nc(-c2cccn(Cc3cccs3)c2=O)cc1NCc1ccc(Cl)s1 [Cmpd 250, 3-1-[(2-chlorophenyl)carbonyl]-5-[(5-chlorothiophen-2-yl)methyl]amino-1H-pyrazol-3-yl-1-(thiophen-2-ylmethyl)-1,2-dihydropyridin-2-one] | –
29 | – | > 7.00 | COc1ccccc1C(=O)n1nc(-c2cccn(CCN3CCOCC3)c2=O)cc1NCc1ccc(Cl)s1 [Cmpd 146, 3-(5-[(5-chlorothiophen-2-yl)methyl]amino-1-[(2-methoxyphenyl)carbonyl]-1H-pyrazol-3-yl)-1-[2-(morpholin-4-yl)ethyl]-1,2-dihydropyridin-2-one] | –
30 | – | > 7.00 | O=C(c1ccc(N2CCOCC2)cc1)n1nc(-c2cccn(Cc3cccs3)c2=O)cc1NCc1ccc(Cl)s1 [Cmpd 216, 3-(5-[(5-chlorothiophen-2-yl)methyl]amino-1-[4-(morpholin-4-yl)phenyl]carbonyl-1H-pyrazol-3-yl)-1-(thiophen-2-ylmethyl)-1,2-dihydropyridin-2-one] | –
31 | – | < 4.00 | O=C(c1ccsc1)n1nc(-c2cccn(Cc3cccnc3)c2=O)cc1NCc1ccc(Cl)s1 [Cmpd 199, 3-(5-[(5-chlorothiophen-2-yl)methyl]amino-1-[(thiophen-3-yl)carbonyl]-1H-pyrazol-3-yl)-1-(pyridin-3-ylmethyl)-1,2-dihydropyridin-2-one] | –
32 | – | > 7.00 | CC1(C(=O)n2nc(-c3cccn(Cc4ccco4)c3=O)cc2NCc2ccc(Cl)s2)CCOCC1 [Cmpd 150, 3-(5-[(5-chlorothiophen-2-yl)methyl]amino-1-[(4-methyloxan-4-yl)carbonyl]-1H-pyrazol-3-yl)-1-(furan-2-ylmethyl)-1,2-dihydropyridin-2-one] | –
33 | – | > 7.00 | CC(C)(C)C(=O)n1nc(-c2cccn(Cc3ccoc3)c2=O)cc1NCc1ccc(Cl)s1 [Cmpd 78, 3-(5-[(5-chlorothiophen-2-yl)methyl]amino-1-(2,2-dimethylpropanoyl)-1H-pyrazol-3-yl)-1-(furan-3-ylmethyl)-1,2-dihydropyridin-2-one] | –
34 | – | > 7.00 | CC(C)(C)C(=O)n1nc(-c2cccn(Cc3cccnc3)c2=O)cc1NCc1ccc(Cl)s1 [Cmpd 83, 3-(5-[(5-chlorothiophen-2-yl)methyl]amino-1-(2,2-dimethylpropanoyl)-1H-pyrazol-3-yl)-1-(pyridin-3-ylmethyl)-1,2-dihydropyridin-2-one] | –
35 | – | > 7.00 | Cn1cccc(-c2cc(NCc3ccc(Cl)s3)n(C(=O)C(C)(C)C)n2)c1=O [Cmpd 90, 3-(5-[(5-chlorothiophen-2-yl)methyl]amino-1-(2,2-dimethylpropanoyl)-1H-pyrazol-3-yl)-1-methyl-1,2-dihydropyridin-2-one] | –
36 | – | > 7.00 | O=C(c1ccsc1)n1nc(-c2cccn(Cc3cccs3)c2=O)cc1NCc1ccc(Cl)s1 [Cmpd 202, 3-(5-[(5-chlorothiophen-2-yl)methyl]amino-1-[(thiophen-3-yl)carbonyl]-1H-pyrazol-3-yl)-1-(thiophen-2-ylmethyl)-1,2-dihydropyridin-2-one] | –
37 | – | > 7.00 | CC(C)(C)C(=O)n1nc(-c2cccn(Cc3ccc4ccccc4c3)c2=O)cc1NCc1ccc(Cl)s1 [Cmpd 80, 3-(5-[(5-chlorothiophen-2-yl)methyl]amino-1-(2,2-dimethylpropanoyl)-1H-pyrazol-3-yl)-1-(naphthalen-2-ylmethyl)-1,2-dihydropyridin-2-one] | –
38 | – | 5.00 to 6.00 | O=c1c(-c2cc(NCc3ccc(Cl)s3)[nH]n2)cccn1Cc1ccccc1 [Cmpd 54, 1-benzyl-3-(5-[(5-chlorothiophen-2-yl)methyl]amino-1H-pyrazol-3-yl)-1,2-dihydropyridin-2-one] | –
39 | – | > 7.00 | O=C(c1ccoc1)n1nc(-c2cccn(Cc3ccccc3Cl)c2=O)cc1NCc1ccc(Cl)s1 [Cmpd 29, 1-[(2-chlorophenyl)methyl]-3-(5-[(5-chlorothiophen-2-yl)methyl]amino-1-[(furan-3-yl)carbonyl]-1H-pyrazol-3-yl)-1,2-dihydropyridin-2-one] | –
40 | – | 5.00 to 6.00 | Nc1cc(-c2ccc[nH]c2=O)nn1C(=O)c1ccco1 [Cmpd 255, 3-5-amino-1-[(furan-2-yl)carbonyl]-1H-pyrazol-3-yl-1,2-dihydropyridin-2-one] | –
41 | – | < 4.00 | O=c1c(-c2cc(NCc3ccc(Cl)s3)[nH]n2)cccn1Cc1ccc2ccccc2c1 [Cmpd 225, 3-(5-[(5-chlorothiophen-2-yl)methyl]amino-1H-pyrazol-3-yl)-1-(naphthalen-2-ylmethyl)-1,2-dihydropyridin-2-one] | –
42 | – | < 4.00 | O=c1c(-c2cc(NCc3ccc(Cl)s3)[nH]n2)cccn1Cc1ccco1 [Cmpd 222, 3-(5-[(5-chlorothiophen-2-yl)methyl]amino-1H-pyrazol-3-yl)-1-(furan-2-ylmethyl)-1,2-dihydropyridin-2-one] | –
43 | – | > 7.00 | CC(C)(CO)C(=O)n1nc(-c2cccn(Cc3cccs3)c2=O)cc1NCc1ccc(Cl)s1 [Cmpd 95, 3-(5-[(5-chlorothiophen-2-yl)methyl]amino-1-(3-hydroxy-2,2-dimethylpropanoyl)-1H-pyrazol-3-yl)-1-(thiophen-2-ylmethyl)-1,2-dihydropyridin-2-one] | –
44 | – | 4.00 to 5.00 | O=c1c(-c2cc(NCc3ccc(Cl)s3)[nH]n2)cccn1Cc1ccccc1Cl [Cmpd 30, 1-[(2-chlorophenyl)methyl]-3-(5-[(5-chlorothiophen-2-yl)methyl]amino-1H-pyrazol-3-yl)-1,2-dihydropyridin-2-one] | –
45 | – | > 7.00 | O=C(c1cccc2c1OCCO2)n1nc(-c2cccn(Cc3ccsc3)c2=O)cc1NCc1ccc(Cl)s1 [Cmpd 118, 3-(5-[(5-chlorothiophen-2-yl)methyl]amino-1-[(2,3-dihydro-1,4-benzodioxin-5-yl)carbonyl]-1H-pyrazol-3-yl)-1-(thiophen-3-ylmethyl)-1,2-dihydropyridin-2-one] | –

Reference: patent US9687479B2, “Multisubstituted aromatic compounds as serine protease inhibitors” (VERSEON CORPORATION, priority 2013, dated 2017)
